According to the NIST ThermoML archive (doi:10.1016/j.jct.2006.05.008):

Experiment: molar heat capacity at constant pressure; wn = mass fraction of the nth substance listed
Details: Small (less than 1 g) adiabatic calorimetry

CCCCn1cc[n+](C)c1.[Br-] [1-butyl-3-methylimidazolium bromide] + O
Crystal
Details | molar heat capacity at constant pressure [J/K/mol]
218.45 K, w2 = 0.00482 | 179.81
218.58 K, w2 = 0.0495 | 158.93
218.67 K, w2 = 0.00482 | 179.82
219.16 K, w2 = 0.0051 | 180.49
219.16 K, w2 = 0.0169 | 170.74
219.92 K, w2 = 0.0169 | 174.79
220.75 K, w2 = 0.00482 | 181.03
221.08 K, w2 = 0.00482 | 181.37
221.13 K, w2 = 0.0495 | 162.83
221.26 K, w2 = 0.0169 | 172.67
221.69 K, w2 = 0.0051 | 182.19
221.98 K, w2 = 0.0169 | 175.21
222.83 K, w2 = 0.00482 | 182.24
223.35 K, w2 = 0.0169 | 174.92
223.65 K, w2 = 0.0495 | 166.27
224.06 K, w2 = 0.0169 | 176.93
224.22 K, w2 = 0.0051 | 184.17
224.86 K, w2 = 0.00482 | 183.19
225.43 K, w2 = 0.0169 | 177.21
226.12 K, w2 = 0.0169 | 179.17
226.16 K, w2 = 0.0495 | 169.5
226.71 K, w2 = 0.00482 | 184.71
226.73 K, w2 = 0.0051 | 185.92
227.52 K, w2 = 0.0169 | 179.5
228.19 K, w2 = 0.0169 | 181.4
228.65 K, w2 = 0.0495 | 172.65
228.79 K, w2 = 0.00482 | 185.77
229.25 K, w2 = 0.0051 | 187.95
229.6 K, w2 = 0.0169 | 181.84
229.71 K, w2 = 0.0051 | 187.47
230.25 K, w2 = 0.0169 | 183.78
230.87 K, w2 = 0.00482 | 187.3
231.12 K, w2 = 0.0495 | 175.4
231.45 K, w2 = 0.0051 | 188.82
231.69 K, w2 = 0.0169 | 184.4
231.75 K, w2 = 0.0051 | 189.69
232.32 K, w2 = 0.0169 | 185.93
232.95 K, w2 = 0.00482 | 188.74
233 K, w2 = 0.0051 | 190.22
233.57 K, w2 = 0.0495 | 178.39
233.77 K, w2 = 0.0169 | 186.45
234.38 K, w2 = 0.0169 | 187.94
234.56 K, w2 = 0.0051 | 191.21
235.03 K, w2 = 0.00482 | 190.17
235.85 K, w2 = 0.0169 | 188.93
236.01 K, w2 = 0.0495 | 181.58
236.12 K, w2 = 0.0051 | 192.22
236.45 K, w2 = 0.0169 | 189.99
237.1 K, w2 = 0.00482 | 191.7
237.67 K, w2 = 0.0051 | 193.48
237.94 K, w2 = 0.0169 | 190.98
238.43 K, w2 = 0.0495 | 184.7
238.52 K, w2 = 0.0169 | 191.98
239.18 K, w2 = 0.00482 | 193.21
239.22 K, w2 = 0.0051 | 194.65
240.02 K, w2 = 0.0169 | 193.19
240.19 K, w2 = 0.00482 | 193.43
240.58 K, w2 = 0.0169 | 194.1
240.74 K, w2 = 0.0051 | 195.27
240.77 K, w2 = 0.0051 | 195.7
240.84 K, w2 = 0.0495 | 187.48
241.25 K, w2 = 0.00482 | 195.08
241.57 K, w2 = 0.00482 | 194.88
242.11 K, w2 = 0.0169 | 195.39
242.23 K, w2 = 0.0051 | 196.6
242.33 K, w2 = 0.0051 | 196.86
242.65 K, w2 = 0.0169 | 196.25
243.11 K, w2 = 0.00482 | 195.57
243.23 K, w2 = 0.0495 | 190.7
243.33 K, w2 = 0.00482 | 196.58
243.57 K, w2 = 0.0051 | 197.62
243.88 K, w2 = 0.0051 | 198.03
244.2 K, w2 = 0.0169 | 197.53
244.66 K, w2 = 0.00482 | 197.15
244.72 K, w2 = 0.0169 | 198.26
244.91 K, w2 = 0.0051 | 198.42
245.41 K, w2 = 0.00482 | 198.24
245.43 K, w2 = 0.0051 | 199.16
245.6 K, w2 = 0.0495 | 193.88
246.12 K, w2 = 0.00482 | 197.87
246.21 K, w2 = 0.00482 | 198.68
246.25 K, w2 = 0.0051 | 199.47
246.28 K, w2 = 0.0169 | 199.77
246.78 K, w2 = 0.0169 | 200.42
246.98 K, w2 = 0.0051 | 200.29
247.48 K, w2 = 0.00482 | 199.98
247.59 K, w2 = 0.0051 | 200.49
247.77 K, w2 = 0.00482 | 200.2
247.97 K, w2 = 0.0495 | 197.01
248.37 K, w2 = 0.0169 | 201.97
248.53 K, w2 = 0.0051 | 201.44
248.85 K, w2 = 0.0169 | 202.5
248.93 K, w2 = 0.0051 | 201.61
249.33 K, w2 = 0.00482 | 201.33
249.56 K, w2 = 0.00482 | 201.61
250.07 K, w2 = 0.0051 | 202.63
250.26 K, w2 = 0.0051 | 202.66
250.31 K, w2 = 0.0495 | 200.17
250.45 K, w2 = 0.0169 | 204.14
250.89 K, w2 = 0.00482 | 202.59
250.91 K, w2 = 0.0169 | 204.77
251.6 K, w2 = 0.0051 | 203.88
251.64 K, w2 = 0.00482 | 203.37
252.15 K, w2 = 0.0051 | 204.56
252.45 K, w2 = 0.00482 | 203.62
252.53 K, w2 = 0.0169 | 206.36
252.64 K, w2 = 0.0495 | 203.4
252.93 K, w2 = 0.0051 | 205.05
252.97 K, w2 = 0.0169 | 206.96
253.72 K, w2 = 0.00482 | 205.38
253.96 K, w2 = 0.00482 | 204.5
254 K, w2 = 0.00482 | 205.09
254.27 K, w2 = 0.0051 | 206.08
254.62 K, w2 = 0.0169 | 208.6
254.74 K, w2 = 0.0051 | 206.57
254.95 K, w2 = 0.0495 | 206.71
255.04 K, w2 = 0.0169 | 209.12
255.56 K, w2 = 0.00482 | 206.28
255.6 K, w2 = 0.0051 | 207.19
255.8 K, w2 = 0.00482 | 206.96
255.99 K, w2 = 0.00482 | 206.25
256.7 K, w2 = 0.0169 | 211
256.94 K, w2 = 0.0051 | 208.23

101 kPa, Liquid
Details | molar heat capacity at constant pressure [J/K/mol]
220.21 K, w2 = 0.0495 | 192.42
221.78 K, w2 = 0.00482 | 273.75
222.3 K, w2 = 0.0495 | 192.93
223.87 K, w2 = 0.00482 | 274.35
224.39 K, w2 = 0.0495 | 193.35
225.97 K, w2 = 0.00482 | 274.97
226.48 K, w2 = 0.0495 | 193.78
228.05 K, w2 = 0.00482 | 275.41
228.57 K, w2 = 0.0495 | 194.3
230.14 K, w2 = 0.00482 | 275.97
230.66 K, w2 = 0.0495 | 194.89
232.23 K, w2 = 0.00482 | 276.47
232.75 K, w2 = 0.0495 | 195.6
234.32 K, w2 = 0.00482 | 276.93
236.41 K, w2 = 0.00482 | 277.36
238.51 K, w2 = 0.00482 | 278.01
240.59 K, w2 = 0.00482 | 278.63
242.68 K, w2 = 0.00482 | 279.3
244.77 K, w2 = 0.00482 | 280.02
246.87 K, w2 = 0.00482 | 280.54
248.96 K, w2 = 0.00482 | 281.17
256.19 K, w2 = 0.0495 | 201.27
